Measured values reported in ChEMBL document CHEMBL1201862, “PubChem BioAssay data set” (2004).
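Each compound was tested at five concentrations against cells in 96-well plates for 48 hours. GI50: concentration for 50% inhibition of growth.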 Calls of active or inactive are those of the source. Rule as the data show it: active = GI50 up to about 1.1 µM and inactive = higher. Where a SMILES comes first, the peptide text is derived from it. The star is where a group is joined. Boc = CC(C)(C)OC(=O)*

Experiments:
Assay in all cases: NCI tumour cell line growth inhibition, 48 h
SK-MEL-2 = system: SK-MEL-2
UACC-62 = system: UACC-62
Hs-578T = system: Hs-578T
SK-MEL-28 = system: SK-MEL-28
HOP-92 = system: HOP-92
UACC-257 = system: UACC-257
A498 = system: A498
NCI-H460 = system: NCI-H460
TK-10 = system: TK-10
SR = system: SR
Malme-3M = system: Malme-3M
HOP-62 = system: HOP-62
HCT-116 = system: HCT-116
M14 = system: M14
MDA-MB-231 = system: MDA-MB-231
MOLT-4 = system: MOLT-4
SNB-19 = system: SNB-19
CCRF-CEM = system: CCRF-CEM
NCI-H226 = system: NCI-H226

Measured: GI50

COC(=O)C1(C)CCC(c2ccc(C)cc2)=C(CC(=O)O)C1 (centres undefined)
inactive: SK-MEL-2 > 100 µM | UACC-62 > 100 µM | Hs-578T > 100 µM | SK-MEL-28 > 100 µM | HOP-92 > 100 µM | UACC-257 > 100 µM | A498 > 100 µM | NCI-H460 > 100 µM | TK-10 > 100 µM | SR > 100 µM | Malme-3M > 100 µM | HOP-62 > 100 µM | HCT-116 > 100 µM | M14 > 100 µM | MDA-MB-231 > 100 µM | MOLT-4 > 100 µM | SNB-19 > 100 µM

Cc1ccc(O)c(-c2cc(-c3cccc(Cl)c3)c(C#N)c(N)n2)c1
inactive: SK-MEL-2 13.2 µM | UACC-62 16.1 µM | Hs-578T 22.7 µM | HOP-92 13.1 µM | CCRF-CEM 24.4 µM | NCI-H226 18.7 µM | NCI-H460 19.6 µM | TK-10 18.1 µM | SR 10.7 µM | Malme-3M 17.5 µM | HOP-62 20.6 µM | HCT-116 16.2 µM | M14 20.9 µM | MDA-MB-231 20.7 µM | MOLT-4 12.8 µM

COc1cc(/C=C2\CC3C4CC=C5C[C@@H](O)CC[C@]5(C)C4CC[C@]3(C)\C2=N\O)cc(OC)c1OC (some centres undefined)
inactive: SK-MEL-2 4.07 µM | UACC-62 9.06 µM | Hs-578T 4.42 µM | SK-MEL-28 14.2 µM | HOP-92 14.3 µM | CCRF-CEM 6.44 µM | UACC-257 9.91 µM | NCI-H226 7.96 µM | A498 6.93 µM | NCI-H460 4.99 µM | TK-10 7.53 µM | Malme-3M 9.35 µM | HOP-62 19.6 µM | HCT-116 4.05 µM | M14 10.5 µM | MDA-MB-231 7.31 µM | MOLT-4 29.2 µM | SNB-19 21.3 µM

O=C1CSC2=NCC3(NN12)c1ccccc1-c1ccccc13
inactive: UACC-62 > 10 µM | Hs-578T > 10 µM | SK-MEL-28 > 10 µM | HOP-92 > 10 µM | CCRF-CEM > 10 µM | UACC-257 > 10 µM | NCI-H226 > 10 µM | NCI-H460 > 10 µM | TK-10 > 10 µM | SR > 10 µM | Malme-3M > 10 µM | HOP-62 > 10 µM | HCT-116 > 10 µM | M14 > 10 µM | MDA-MB-231 > 10 µM | MOLT-4 > 10 µM | SNB-19 > 10 µM

COc1ccc(C2=Nn3c(nnc(Cc4ccc(Cl)cc4)c3=O)SC2)cc1
inactive: SK-MEL-2 26.5 µM | UACC-62 32.4 µM | Hs-578T 63.5 µM | SK-MEL-28 74.6 µM | HOP-92 > 100 µM | CCRF-CEM 38.3 µM | UACC-257 46.9 µM | NCI-H226 94 µM | A498 30.8 µM | NCI-H460 37.8 µM | TK-10 > 100 µM | Malme-3M > 100 µM | HOP-62 62.1 µM | HCT-116 28.1 µM | M14 31.5 µM | MDA-MB-231 60.3 µM | MOLT-4 26.7 µM | SNB-19 53.2 µM

O=C1Oc2ccccc2C(=O)/C1=C/N1C(=O)/C(=C/c2ccc3c(c2)OCO3)SC1=S
inactive: SK-MEL-2 17.2 µM | UACC-62 28.2 µM | Hs-578T 1.32 µM | SK-MEL-28 17.3 µM | CCRF-CEM 26.1 µM | UACC-257 24.3 µM | NCI-H226 11.5 µM | A498 3.99 µM | NCI-H460 16.8 µM | SR 15.8 µM | Malme-3M 19.8 µM | HOP-62 14.6 µM | HCT-116 33.7 µM | M14 17.9 µM | MDA-MB-231 25.1 µM | MOLT-4 17.5 µM

Cc1ccc(/N=N\c2c(O)ccc3cc(S(=O)(=O)O)ccc23)cc1
inactive: SK-MEL-2 > 100 µM | UACC-62 > 100 µM | Hs-578T > 100 µM | SK-MEL-28 > 100 µM | HOP-92 > 100 µM | CCRF-CEM > 100 µM | UACC-257 > 100 µM | NCI-H226 > 100 µM | A498 > 100 µM | NCI-H460 > 100 µM | TK-10 > 100 µM | Malme-3M > 100 µM | HOP-62 > 100 µM | HCT-116 > 100 µM | M14 > 100 µM | MDA-MB-231 > 100 µM | MOLT-4 > 100 µM | SNB-19 > 100 µM

[N-]=[N+]=CC(=O)C1CCN(c2ccccc2)C1=O (centres undefined)
inactive: SK-MEL-2 > 10 µM | UACC-62 > 10 µM | Hs-578T > 10 µM | SK-MEL-28 > 10 µM | CCRF-CEM > 10 µM | UACC-257 > 10 µM | NCI-H226 > 10 µM | A498 > 10 µM | NCI-H460 > 10 µM | TK-10 > 10 µM | SR > 10 µM | Malme-3M > 10 µM | HOP-62 > 10 µM | HCT-116 > 10 µM | M14 > 10 µM | MDA-MB-231 > 10 µM | MOLT-4 > 10 µM | SNB-19 > 10 µM

O=C(CCCl)NN=C1NCCCCN1
inactive: SK-MEL-2 > 100 µM | UACC-62 > 100 µM | Hs-578T > 100 µM | SK-MEL-28 > 100 µM | HOP-92 > 100 µM | CCRF-CEM > 100 µM | UACC-257 > 100 µM | NCI-H226 > 100 µM | NCI-H460 > 100 µM | TK-10 > 100 µM | SR > 100 µM | Malme-3M > 100 µM | HOP-62 > 100 µM | HCT-116 > 100 µM | M14 > 100 µM | MDA-MB-231 > 100 µM | MOLT-4 > 100 µM | SNB-19 > 100 µM

CC(C)(C)OC(=O)NCC(=O)NCC(=O)NCC(=O)NCC(=O)O (Boc-GGGG-OH)
inactive: UACC-62 > 100 µM | Hs-578T 66.1 µM | SK-MEL-28 > 100 µM | HOP-92 > 100 µM | CCRF-CEM > 100 µM | UACC-257 > 100 µM | A498 > 100 µM | NCI-H460 > 100 µM | TK-10 > 100 µM | SR > 100 µM | Malme-3M > 100 µM | HOP-62 > 100 µM | HCT-116 > 100 µM | M14 > 100 µM | MDA-MB-231 > 100 µM | MOLT-4 > 100 µM | SNB-19 > 100 µM

COC(c1ccc(C(C)(C)C)cc1)(c1ccc(C(C)(C)C)cc1)c1ccc(C(C)(C)C)cc1
inactive: SK-MEL-2 > 100 µM | UACC-62 > 100 µM | Hs-578T > 100 µM | SK-MEL-28 > 100 µM | CCRF-CEM > 100 µM | NCI-H226 > 100 µM | A498 > 100 µM | NCI-H460 > 100 µM | TK-10 > 100 µM | SR > 100 µM | Malme-3M > 100 µM | HOP-62 > 100 µM | HCT-116 > 100 µM | M14 70.5 µM | MDA-MB-231 > 100 µM | MOLT-4 > 100 µM | SNB-19 > 100 µM
